{
  "source": "patent US20120302530A1",
  "about": "“23-HYDROXY-BETULINIC ACID DERIVATIVES, PREPARATION METHODS AND USES THEREOF” (priority 2009, published 2012)",
  "key": {"[1]": {"system": "human colon cancer cell HCT-116", "experiment": "Human tumor xenograft model in nude mice", "assay_type": "in vivo, nude mice (nu/nu)", "conditions": "HCT-116 xenograft, 30 mg/kg oral, 5 times a week for 3 weeks, end point 4 weeks; low = active", "source_text": "(§1) (7) Drug administration of human tumor xenograft model and nude mice tumor transplantation model: (see Harrison S D Jr; Growth of human tumor cells in athymic mice; J Natl Cancer Inst. 1991 Oct. 16; 83 (20): 1509).\n(§2) T cell deficiency nude mice (nu/nu) (male, 6-week old) are bought from Charles River Lab, and are raised in pathogen-free environment according to guidelines of animal raising and using committee of university. The number of […] LNCaP, NCI-H23, HCT-116, G-361 and U-251 cells are suspended in 0.2 ml HBSS or matrigel (50: 50, v/v), and are subcutaneously vaccinated to the side abdomen region of the mice. When the average diameters of the tumors are 7˜8 mm, the mice having tumor size of 100˜200 mm3 are chosen, and are given with treatment group of compound zhangnan-5 prepared with corn oil and are only given with control group of empty carrier (corn oil), respectively.\n(§3) In the oral feeding test, the compound zhangnan-5 (30 mg/kg) is dissolved in corn oil. Each day the mice are tube fed with 200 μl drug liquid in single dose (prepared with corn oil, containing 0.75 mg compound zhangnan-5) for 5 times a week and for 3 weeks. The control group is given placebo (corn oil) according to same method. The mice are raised separately, and are allowed to self-help feeding.\n(§4) The tumor is measured in two vertical directions every 3˜4 days."}, "[2]": {"system": "human lung cancer cell NCI-H23", "experiment": "Human tumor xenograft model in nude mice", "assay_type": "in vivo, nude mice (nu/nu)", "conditions": "30 mg/kg oral, 5 times a week for 3 weeks, end point 4 weeks, low = active", "source_text": "as §1, §2, §3, §4"}, "[3]": {"system": "human prostate cancer cell LnCAP", "experiment": "Human tumor xenograft model in nude mice", "assay_type": "in vivo, nude mice (nu/nu)", "conditions": "30 mg/kg oral, 5 times a week for 3 weeks, end point 4 weeks, low = active", "source_text": "as §1, §2, §3, §4"}, "[4]": {"system": "human malignant glioma cell U-251", "experiment": "Human tumor xenograft model in nude mice", "assay_type": "in vivo, nude mice (nu/nu)", "conditions": "U-251 xenograft, 30 mg/kg oral, 5 times a week for 3 weeks, end point 4 weeks; low = active", "source_text": "as §1, §2, §3, §4"}, "[5]": {"system": "human melanoma cell G-361", "experiment": "Human tumor xenograft model in nude mice", "assay_type": "in vivo, nude mice (nu/nu)", "conditions": "G-361 xenograft, 30 mg/kg oral, 5 times a week for 3 weeks, end point 4 weeks; low = active", "source_text": "as §1, §2, §3, §4"}, "[6]": {"experiment": "Acute toxicity of zhangnan-5 to mice upon feeding", "assay_type": "in vivo, BlebC mice", "source_text": "(6) Research on the acute toxicity of compound zhangnan-5 to mice upon feeding the drug: (see Gol'dberg L E, Stepanova E S, Vertogradova T P, Shevniuk L A, Shepelevtseva G. Preclinical toxicological study of the new antibiotic eremomycin. Its acute toxicity for laboratory animals, Antibiot Med Biotekhnol. 1987, 32 (12): 910-5).\nTwo groups of 8-week old BlebC mice are taken, and each group has 10 mice (five male and five female). The mice are fed with the compound zhangnan-5 (prepared with corn oil or carrier) in single dose 500 mg/kg and in multi-dose 200 mg/kg (QDX15), respectively. Then, observation is made to the mice for 1 week and 4 week, respectively. The mice are weighted every other day. When the test is over, the tested mice are killed for pathological analysis. […] Thus, the compound zhangnan-5 has great potential to be developed as a new antineoplastic drug of wide spectrum. The compound zhangnan-5 can be used as drug substance of anti-tumor drugs, preferably used as drug substance of anti-malignant solid tumor drugs. The compound zhangnan-5 can also be used with drug carrier and/or excipient to make anti-tumor drug. The drug carrier and/or excipient can be, for example, corn oil, sodium carboxymethylcellulose, and the like."}, "human tumor cell strains": {"system": "human tumor cell strains", "experiment": "MTT cytotoxicity, human tumor cell strains (summary statement)", "assay_type": "cell-based", "conditions": "some (unnamed) human tumor cell strains, 72 hours, read-out: EC50 of some tumor cells", "source_text": "We use human tumor cell lines to conduct cytotoxicity analysis. Thirty-one (31) kinds of human tumor cell strains are cultivated in the normal culture medium containing various compounds of zhangnan-5, zhangnan-7 and zhangnan-8. The human tumor lines are bought from ATCC and NCI, and is cultivated with DMEM culture solution containing 10% FBS in 370C couveuse containing 5% CO2. The merged cells are digested by trypsinase, and are counted after washed by the culture solution. 3000˜6000 cells are added into each hole of the 96-hole culture plate, and are hatched for 16 hours or 24 hours. Then, compounds zhangnan-5, zhangnan-7 and zhangnan-8 with different concentrations are added into the holes. Upon further cultivated for another 72 hours, MTT tests are conducted to cells in group treated with drugs and the control group cells, to determine the survival condition of the cells."}},
  "note": "pEC50: −log10 of the molar value.",
  "data": [
    {"smiles": "C=C(C)C1CCC2(C(=O)O)CCC3(C)C(CCC4C5(C)CCC(=O)C(C)(CO)C5CCC43C)C12", "note": "(stereo not drawn) [zhangnan-5]", "values": [
      {"measurement": "TGI (T/C×100 of relative tumor volume)", "setting": "[1]", "value": 6.9, "unit": "%"},
      {"measurement": "TGI (T/C×100 of relative tumor volume)", "setting": "[2]", "value": 0, "unit": "%"},
      {"measurement": "T/C of relative tumor volume (%)", "setting": "[3]", "value": 5, "unit": "%"},
      {"measurement": "T/C of relative tumor volume (treated/control × 100)", "setting": "[4]", "value": 12.5, "unit": "%"},
      {"measurement": "TGI (T/C×100 of relative tumor volume)", "setting": "[5]", "value": 10.8, "unit": "%"},
      {"measurement": "toxicity, multi-dose", "setting": "[6]; fed, multi-dose 200 mg/kg (QDX15), observed 4 week", "value": "no toxicity is observed"},
      {"measurement": "acute toxicity", "setting": "[6]; fed, single dose 500 mg/kg, observed 1 week", "value": "no toxicity is observed"},
      {"measurement": "mortality", "setting": "[6]; single dose 500 mg/kg and multi-dose 200 mg/kg (QDX15)", "value": "no single death"},
      {"measurement": "pEC50", "setting": "human tumor cell strains", "value": "> 7.00"}
    ]}
  ]
}
